The values that follow come from patent US6054258A, “Photographic elements containing high-boiling esters” (Eastman Kodak Company, priority 1998, dated 2000).

Structures are written as SMILES. ≈ marks a conversion by molar mass, not a printed value.

What all share (assay type): physicochemical
Data set [1] can be described thus: Visible absorption maximum (Lambda max) of Dye C1 in the solvent, measure of solvent polarity/polarizability. To be noted: for Lambda max of Dye C1: Dye C1 in the high-boiling solvent, Perkin Elmer Lambda 2S spectrophotometer; for Lambda max of Dye C1 (in words): relative to B1 and B4; for polarity/polarizability (in words): relative to B1. The method, then: (§1) As noted earlier, high-boiling solvents are desired that have low water solubility and low-to-moderate viscosity and that provide suitably bathochromic dye hues, i.e. hues of suitably long wavelengths. In this example, these properties are evaluated for comparison high-boiling solvents known in the art and for high-boiling solvents of this invention. Results are summarized in Table I. Structures of the comparative high-boiling solvents are provided after Table I.
(§2) Water solubilities were obtained from plots of light scattering at 500 nm of dispersions of the high-boiling solvent in water versus concentration. The light scattering density goes to zero at the solubility limit, when dispersions of high-boiling solvent are diluted. Values of log P calculated using MEDCHEM version 3.54 are also given in Table I and serve as rough indicators of water solubility. Viscosities reported in Table I were measured using a Brookfield cone/plate viscometer. Solvents of high polarity and/or polarizability are often needed to provide suitably bathochromic hues for the types of dyes commonly encountered in color photographic materials. Dye C1, whose structure is provided after Table I, is representative of such dyes. The visible absorption maxima (Lambda max) values for C1, measured with a Perkin Elmer Lambda 2S spectrophotometer, are provided in Table I as measure of solvent polarity/polarizability.

The nature of data set [2]: Water solubility from light scattering at 500 nm of dispersions of the high-boiling solvent in water. On the procedure: As noted earlier, high-boiling solvents are desired that have low water solubility and low-to-moderate viscosity and that provide suitably bathochromic dye hues, i.e. hues of suitably long wavelengths. In this example, these properties are evaluated for comparison high-boiling solvents known in the art and for high-boiling solvents of this invention.
as §2, with “Values of log P calculated using MEDCHEM version 3.54 are also given in Table I and serve as rough indicators of water solubility.” left out

Data set [3] in a line: Viscosity measured using a Brookfield cone/plate viscometer. On the procedure:
as §1, §2

As for `O=C(OCCCc1ccccc1)c1ccccc1` [A1], in data set [1], the “Lambda max of Dye C1” value is 673 nm; the “Lambda max of Dye C1 (in words)” value is “relatively close to those of B1 and B4”. For the same compound, the solubility in data set [2] was 5.5 µg/mL (≈ 22.9 µM). In addition, the Viscosity in data set [3] was determined as 15 centipoise.
With `CC(C)(COC(=O)c1ccccc1)Cc1ccccc1` [A2], in data set [1], the “Lambda max of Dye C1” value was 668 nm; the “Lambda max of Dye C1 (in words)” value was “relatively close to those of B1 and B4”. In data set [3], the Viscosity is on record as 99 centipoise.
On to `Cc1ccc(C(=O)OCCCc2ccccc2)cc1` [A3], for which, in data set [1], the “Lambda max of Dye C1” value was 670 nm; the “Lambda max of Dye C1 (in words)” value was “relatively close to those of B1 and B4”. The solubility in data set [2] was determined as 3.5 µg/mL (≈ 13.8 µM). Further, the Viscosity in data set [3] amounted to 22 centipoise.
Consider `CCCCOC(=O)c1ccccc1C(=O)OCCCC` [B1, dibutyl phthalate], for which, in data set [1], the “Lambda max of Dye C1” value was determined as 674 nm. In data set [2], this compound registered a solubility of 9.4 µg/mL (≈ 33.8 µM). Besides, the Viscosity in data set [3] is given as 17 centipoise.
Turning to `CCCCOC(=O)CCCCCCCCC(=O)OCCCC` [B2], in data set [1], the “Lambda max of Dye C1” value amounted to 658 nm and the “polarity/polarizability (in words)” value is “reduced polarity/polarizability relative to B1”. Further, the concentration in solution in data set [2] (solubility) came to 0.8 µg/mL (≈ 2.54 µM). In addition, the Viscosity in data set [3] is 9 centipoise.
`CCCCC(CC)COC(=O)C1CCCCC1` (stereo not drawn) [B3]: in data set [1], the “Lambda max of Dye C1” value is given as 661 nm and the “polarity/polarizability (in words)” value was “reduced polarity/polarizability relative to B1”. The compound also displayed a Viscosity in data set [3] of 6 centipoise.
Regarding `O=C(OCCc1ccccc1)c1ccccc1` [B4], the “Lambda max of Dye C1” value in data set [1] came out at 674 nm. The compound also registered a solubility in data set [2] of 10 µg/mL (≈ 44.2 µM). The compound also displayed a Viscosity in data set [3] of 14 centipoise.

One may read the solubility as the dissolved amount per volume that the medium holds. Lower therefore signals a poorly soluble substance.
